In assay [1] the test system is Human gastric cancer cells (MKN-45). The experiment in a line: Inhibitory activity against the proliferation of human gastric cancer cells (MKN-45). It counts as cell-based. Conditions: 72 h, MKN-45, 1% FBS RPMI1640, 3 days, Cell Counting Kit-8. The method, boiled down: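 MKN-45 cells seeded overnight in RPMI1640 with 1% FBS, then exposed to compound for 3 days at 37° C, 5% CO2. Viability read with CCK-8 after about 1.5 hrs, absorbance at 450 nm (reference 660 nm).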
(In general: Tetrazolium assays rely on reduction of a dye to a coloured formazan, in cell work by metabolically active cells.)

The target in assay [2] is T1, HGFR (Homo sapiens, UniProt P08581).
T1 construct: endogenous in cells; host or cells: MKN-45 human gastric cancer cells
T1 sequence (P08581 25-1390): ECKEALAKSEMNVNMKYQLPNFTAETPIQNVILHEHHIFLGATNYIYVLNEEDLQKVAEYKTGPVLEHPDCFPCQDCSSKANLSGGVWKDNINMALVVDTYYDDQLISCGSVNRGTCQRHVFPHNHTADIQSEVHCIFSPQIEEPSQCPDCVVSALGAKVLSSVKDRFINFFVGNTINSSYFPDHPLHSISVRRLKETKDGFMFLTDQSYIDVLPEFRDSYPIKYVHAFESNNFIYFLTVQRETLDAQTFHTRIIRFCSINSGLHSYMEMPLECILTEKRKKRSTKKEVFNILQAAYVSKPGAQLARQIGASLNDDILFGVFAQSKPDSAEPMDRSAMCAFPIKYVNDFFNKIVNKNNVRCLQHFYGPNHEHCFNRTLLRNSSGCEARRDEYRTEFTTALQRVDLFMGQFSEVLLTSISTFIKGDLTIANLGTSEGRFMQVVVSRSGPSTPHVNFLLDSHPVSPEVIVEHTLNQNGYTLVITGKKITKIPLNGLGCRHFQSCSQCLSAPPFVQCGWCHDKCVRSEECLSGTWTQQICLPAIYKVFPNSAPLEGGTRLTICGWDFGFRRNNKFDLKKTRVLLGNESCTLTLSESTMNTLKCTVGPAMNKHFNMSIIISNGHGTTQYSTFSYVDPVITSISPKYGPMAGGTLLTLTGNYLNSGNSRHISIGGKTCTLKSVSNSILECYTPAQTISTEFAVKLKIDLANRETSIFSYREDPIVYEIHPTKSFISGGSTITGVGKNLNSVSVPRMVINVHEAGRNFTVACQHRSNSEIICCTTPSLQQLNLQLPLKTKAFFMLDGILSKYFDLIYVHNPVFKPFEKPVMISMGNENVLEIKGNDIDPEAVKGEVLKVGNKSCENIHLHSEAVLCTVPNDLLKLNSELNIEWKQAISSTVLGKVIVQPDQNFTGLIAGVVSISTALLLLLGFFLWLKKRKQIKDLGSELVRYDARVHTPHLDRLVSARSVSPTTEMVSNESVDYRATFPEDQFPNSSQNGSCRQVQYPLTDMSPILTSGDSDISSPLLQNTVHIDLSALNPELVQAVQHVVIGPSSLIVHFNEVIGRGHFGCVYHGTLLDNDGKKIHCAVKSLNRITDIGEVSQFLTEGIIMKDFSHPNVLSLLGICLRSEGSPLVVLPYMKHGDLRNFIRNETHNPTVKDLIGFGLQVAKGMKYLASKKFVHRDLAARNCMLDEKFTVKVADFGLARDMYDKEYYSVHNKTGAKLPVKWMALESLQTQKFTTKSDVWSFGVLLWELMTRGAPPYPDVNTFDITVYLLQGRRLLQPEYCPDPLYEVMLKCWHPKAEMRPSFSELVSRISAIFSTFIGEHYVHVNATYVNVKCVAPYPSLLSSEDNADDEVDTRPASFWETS
The experiment in a line: Inhibitory activity against the HGFR autophosphorylation using ELISA (MKN-45 cells). The format is cell-based. To be noted: 1 hr with test substance. The method, boiled down:
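MKN-45 gastric cancer cells, plated overnight in 1% FBS RPMI1640, treated with compound 1 h at 37° C and lysed. Lysate captured on anti-phosphotyrosine (PY20) plates, probed with anti-HGFR then HRP anti-rabbit IgG; TMB absorbance at 450 nm. Activity expressed as % of untreated extract (100%) versus lysis buffer blank (0%).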
For orientation: An ELISA detects its analyte on a solid surface through an enzyme-linked reagent.

With `CN(C)CC1CCN(C(=O)Nc2cc(Oc3ccc(NC(=O)C4(C(=O)Nc5ccc(F)cc5)CC4)cc3F)ccn2)CC1` [Example 5, N-[4-({2-[({4-[(Dimethylamino)methyl]piperidin-1-yl}carbonyl)amino]pyridin-4-yl}oxy)-3-fluorophenyl]-N′-(4-fluorophenyl)cyclopropane-1,1-dicarboxamide], the IC50 (usually the concentration that gives 50% inhibition) was 19 nM in assay [1] and 22 nM in assay [2].

As to `O=C(Nc1cc(Oc2ccc(NC(=O)C3(C(=O)Nc4ccc(F)cc4)CC3)cc2F)ccn1)N1CC(CO)C1` [Example 81, N-(3-Fluoro-4-{[2-({[3-(hydroxymethyl)azetidin-1-yl]carbonyl}amino)pyridin-4-yl]oxy}phenyl)-N′-(4-fluorophenyl)cyclopropane-1,1-dicarboxamide], the 50% inhibitory concentration (IC50) amounted to 17 nM in assay [1] and 7 nM in assay [2].

In the case of `O=C(Nc1cc(Oc2ccc(NC(=O)C3(C(=O)Nc4ccc(F)cc4)CC3)c(F)c2)ccn1)N1CCC(O)CC1` [Example 82, N-[2-Fluoro-4-[(2-{[(4-hydroxypiperidin-1-yl)carbonyl]amino}pyridin-4-yl)oxy]phenyl}-N′-(4-fluorophenyl)cyclopropane-1,1-dicarboxamide], the figures for the IC50 in assay [1] and in assay [2] were 21 nM and 22 nM, respectively.

`O=C(Nc1cc(Oc2ccc(NC(=O)C3(C(=O)Nc4ccc(F)cc4)CC3)c(F)c2)ccn1)N1CCC(CO)CC1` [Example 83, N-(2-Fluoro-4-{[2-({[4-(hydroxymethyl)piperidin-1-yl]carbonyl}amino)pyridin-4-yl]oxy}phenyl)-N′-(4-fluorophenyl)cyclopropane-1,1-dicarboxamide]: the IC50 came out at 16 nM in assay [1] and 18 nM in assay [2].

Take `O=C(Nc1cc(Oc2ccc(NC(=O)C3(C(=O)Nc4ccc(F)cc4)CC3)cc2F)ccn1)N1CCC(O)CC1` [Example 84, N-[3-Fluoro-4-[(2-{[(4-hydroxypiperidin-1-yl)carbonyl]amino}pyridin-4-yl)oxy]phenyl}-N′-(4-fluorophenyl)cyclopropane-1,1-dicarboxamide]: the IC50 in assay [1] was 19 nM; in assay [2], 17 nM.

Turning to `O=C(Nc1cc(Oc2ccc(NC(=O)C3(C(=O)Nc4ccc(F)cc4)CC3)cc2F)ccn1)N1CCC(CO)CC1` [Example 85, N-(3-Fluoro-4-{[2-({[-4-(hydroxymethyl)piperidin-1-yl]carbonyl}amino)pyridin-4-yl]oxy}phenyl)-N′-(4-fluorophenyl)cyclopropane-1,1-dicarboxamide], the IC50 was determined as 15 nM in assay [1] and 14 nM in assay [2].

For `O=C(Nc1cc(Oc2ccc(NC(=O)C3(C(=O)Nc4ccc(F)cc4)CC3)cc2F)ccn1)N1CC[C@@H](O)C1` [Example 86, N-(3-Fluoro-4-{[2-({[(3R)-3-hydroxypyrrolidin-1-yl]carbonyl}amino)pyridin-4-yl]oxy}phenyl)-N′-(4-fluorophenyl)cyclopropane-1,1-dicarboxamide], the IC50 was 15 nM in assay [1] and 11 nM in assay [2].

In the case of `O=C(Nc1cc(Oc2ccc(NC(=O)C3(C(=O)Nc4ccc(F)cc4)CC3)c(F)c2)ccn1)N1CC[C@@H](O)C1` [Example 87, N-(2-Fluoro-4-{[2-({[(3R)-3-hydroxypyrrolidin-1-yl]carbonyl}amino)pyridin-4-yl]oxy}phenyl)-N′-(4-fluorophenyl)cyclopropane-1,1-dicarboxamide], the half-inhibitory concentration (IC50) was 14 nM in assay [1] and 12 nM in assay [2].

For `O=C(Nc1cc(Oc2ccc(NC(=O)C3(C(=O)Nc4ccc(F)cc4)CC3)cc2F)ccn1)N1CC[C@H](O)C1` [Example 88, N-(3-Fluoro-4-{[2-({[(3S)-3-hydroxypyrrolidin-1-yl]carbonyl}amino)pyridin-4-yl]oxy}phenyl)-N′-(4-fluorophenyl)cyclopropane-1,1-dicarboxamide], the IC50 came out at 18 nM in assay [1] and 20 nM in assay [2].

For `O=C(Nc1cc(Oc2ccc(NC(=O)C3(C(=O)Nc4ccc(F)cc4)CC3)c(F)c2)ccn1)N1CC[C@H](O)C1` [Example 89, N-(2-Fluoro-4-{[2-({[(3S)-3-hydroxypyrrolidin-1-yl]carbonyl}amino)pyridin-4-yl]oxy}phenyl)-N′-(4-fluorophenyl)cyclopropane-1,1-dicarboxamide], the figures for the IC50 in assay [1] and in assay [2] were 18 nM and 17 nM, respectively.

Consider `O=C(Nc1cc(Oc2cc(F)c(NC(=O)C3(C(=O)Nc4ccc(F)cc4)CC3)cc2F)ccn1)N1CCC1` [Example 90, N-[4-({2-[(Azetidin-1-ylcarbonyl)amino]pyridin-4-yl}oxy)-2,5-difluorophenyl]-N′-(4-fluorophenyl)cyclopropane-1,1-dicarboxamide], for which the results for the 50% inhibitory concentration (IC50) in assay [1] and in assay [2] were 5 nM and 11 nM, respectively.

As for `CN1CCN(C2CCN(C(=O)Nc3cc(Oc4cc(F)c(NC(=O)C5(C(=O)Nc6ccc(F)cc6)CC5)cc4F)ccn3)CC2)CC1` [Example 92, N-(2,5-Difluoro-4-{[2-({[4-(4-methylpiperazin-1-yl)piperidin-1-yl]carbonyl}amino)pyridin-4-yl]oxy}phenyl)-N′-(4-fluorophenyl)cyclopropane-1,1-dicarboxamide], the IC50 was determined as 4.9 nM in assay [1] and 13 nM in assay [2].

Regarding `CN(C)CC1CN(C(=O)Nc2cc(Oc3cc(F)c(NC(=O)C4(C(=O)Nc5ccc(F)cc5)CC4)cc3F)ccn2)C1` [Example 93, N-[2,5-Difluoro-4-({2-[({3-[(dimethylamino)methyl]azetidin-1-yl]carbonyl)amino]pyridin-4-yl}oxy)phenyl]-N′-(4-fluorophenyl)cyclopropane-1,1-dicarboxamide], the IC50 was 5.2 nM in assay [1] and 7 nM in assay [2].

For the compound `O=C(Nc1cc(Oc2cc(F)c(NC(=O)C3(C(=O)Nc4ccc(F)cc4)CC3)cc2F)ccn1)N1CC(CN2CCC2)C1` [Example 95, N-{4-[(2-{[3-(Azetidin-1-ylmethyl)azetidin-1-ylcarbonyl]amino}pyridin-4-yl)oxy]-2,5-difluorophenyl}-N′-(4-fluorophenyl)cyclopropane-1,1-dicarboxamide], the IC50 in assay [1] worked out at 5.4 nM; in assay [2] it was 13 nM.

Regarding `O=C(Nc1cc(Oc2cc(F)c(NC(=O)C3(C(=O)Nc4ccc(F)cc4)CC3)cc2F)ccn1)N1CC(CO)C1` [Example 96, N-(2,5-Difluoro-4-{[2-({[3-(hydroxymethyl)azetidin-1-yl]carbonyl}amino)pyridin-4-yl]oxy}phenyl)-N′-(4-fluorophenyl)cyclopropane-1,1-dicarboxamide], the IC50 in assay [1] came out at 3.8 nM; in assay [2] it was 4.2 nM.

In the case of `O=C(Nc1cc(Oc2cc(F)c(NC(=O)C3(C(=O)Nc4ccc(F)cc4)CC3)cc2F)ncn1)N1CC(O)C1` [Example 97, N-{2,5-Difluoro-4-[(4-{[(3-hydroxyazetidin-1-yl)carbonyl]amino}pyrimidin-6-yl)oxy]phenyl}-N′-(4-fluorophenyl)cyclopropane-1,1-dicarboxamide], the IC50 in assay [1] is 38 nM; in assay [2] it was 14 nM.

In the case of `CN(C)CC1CN(C(=O)Nc2cc(Oc3cc(F)c(NC(=O)C4(C(=O)Nc5ccc(F)cc5)CC4)cc3F)ncn2)C1` [Example 98, N-[4-({4-[({3-[(Dimethylamino)methyl]azetidin-1-yl}carbonyl)amino]pyrimidin-6-yl}oxy)-2,5-difluorophenyl]-N′-(4-fluorophenyl)cyclopropane-1,1-dicarboxamide], the IC50 in assay [1] was 23 nM; in assay [2] it was 17 nM.

(Values after US7855290B2, “Pyridine derivatives and pyrimidine derivatives (3)” (Eisai R&D Management Co., Ltd., priority 2005, dated 2010).)
